The subject of one test is SD rats. Description: animal or person. The class given is in vivo. Conditions: for ED50: Rattus norvegicus; for duration and recovery time compared with remimazolam / effective dose compared with remimazolam: rats, tail vein, in words.
A further test concerns KM mice. Description: animal or person. The class given is in vivo. Conditions: for ED50: Mus musculus; for duration and recovery time compared with remimazolam / effective dose compared with remimazolam: mice, tail vein, in words.
Setting [1] is: SD rats (male, 220-300 g), injection via the tail vein, disappearance of righting reflex, read-out: ED50.
[2] abbreviates: SD rats, single tail vein injection at 2×ED50, time from disappearance to recovery of righting reflex.
[3] abbreviates: SD rats, single tail vein injection at 2×ED50, time from recovery of righting reflex to free crawling.
The mark [4] stands for this setting: KM mice, single tail vein injection at 2×ED50, time from disappearance to recovery of righting reflex.
Where [5] appears, read: KM mice, single tail vein injection at 2×ED50, time from recovery of righting reflex to free crawling.
Where [6] appears, read: KM mice (male, 18-22 g), injection via the tail vein, disappearance of righting reflex, read-out: ED50.

Structures can show the parent of a compound that is named as a salt. Where two headings read alike, the source gives them in different places.

As to `CCC(CC)OC(=O)OCOC(=O)CC[C@@H]1N=C(c2ccccn2)c2cc(Br)c(Br)cc2-n2c(C)cnc21` [Example 12], the ED50 came to 5.7 mg/kg in the test on SD rats (setting [1]) and 31.3 mg/kg in the test on KM mice (setting [6]). Further, the “2ED50 duration” value in the test on SD rats (setting [2]) is reported as 5.24 min; in the test with KM mice (setting [4]), 5.32 min. In addition, the 2ED50 recovery time in the test with SD rats (setting [3]) and in the test on KM mice (setting [5]) was 2.04 min throughout. For the same compound, the Quality of recovery entry in the test with SD rats (SD rats, tail vein injection) was “++ (“++” means 1-3 min)”; with KM mice (KM mice, tail vein injection), “+++ (“+++” means 3-5 min)”.

As for `CCOC(=O)OCOC(=O)CC[C@@H]1N=C(c2ccccn2)c2cc(Cl)cc(F)c2-n2c(C)cnc21` [Example 71, ((Ethoxycarbonyl)oxy)methyl 3-((4S)-8-chloro-10-fluoro-1-methyl-6-(pyridine-2-yl)-4H-benzo[f]imidazo [1,2-a][1,4]diaza-4-yl)propionate 2-hydroxypropane-1,2,3-tricarboxylate], the ED50 in the test with SD rats is 4.8 mg/kg. In addition, in the test on SD rats (rat, in vivo), the “2ED50 duration” value stood at 3.21 min, the 2ED50 recovery time was 2.36 min and the Quality of recovery entry is listed as “+ (key: “+” means <1 min; “++” means 1-3 min; “+++” means 3-5 min; “++++” means 5-10 min; “+++++” means >10 min)”. Moreover, the ED50 in the test with KM mice came to 28.2 mg/kg. For the same compound, in the test on KM mice (mouse, in vivo), the 2ED50 duration is 3.09 min, the 2ED50 recovery time was 2.36 min and the Quality of recovery entry is “++ (key: “+” means <1 mm; “++” means 1-3 min; “+++” means 3-5 min; “++++” means 5-10 min; “+++++” means >10 mm)”.

As for `COC(=O)C(C)OC(=O)CC[C@@H]1N=C(c2ccccn2)c2c(cc(Cl)c(Cl)c2Cl)-n2c(C)cnc21` (some centres unmarked) [Example 29], the median effective dose (ED50) in the test on SD rats (setting [1]) was determined as 5.8 mg/kg; in the test on KM mice (setting [6]), 30.8 mg/kg. For the same compound, the “2ED50 duration” value with SD rats (setting [2]) amounted to 3.59 min; with KM mice (setting [4]) it was 4.59 min. Also, the figures for the 2ED50 recovery time with SD rats (setting [3]) and with KM mice (setting [5]) were 2.44 min and 2.48 min, respectively. Further, the Quality of recovery result with SD rats (SD rats, tail vein injection) is reported as “+++ (“+++” means 3-5 min)”; with KM mice (KM mice, tail vein injection) it was “+++ (“+++” means 3-5 min)”.

With `COC(=O)COC(=O)CC[C@@H]1N=C(c2ccccn2)c2cc(F)c(OC)cc2-n2c(C)cnc21` [Example 27], the results for the ED50 in the test on SD rats (setting [1]) and with KM mice (setting [6]) were 6.3 mg/kg and 15.3 mg/kg, respectively. Also, the “2ED50 duration” value in the test with SD rats (setting [2]) was found to be 1.16 min; with KM mice (setting [4]), 1.46 min. Moreover, the 2ED50 recovery time is 1.05 min in the test on SD rats (setting [3]) and 1.20 min in the test with KM mice (setting [5]). Further, the Quality of recovery result in the test on SD rats (SD rats, tail vein injection) is reported as “+ (“+” means <1 min)”. The “duration and recovery time compared with remimazolam” value with SD rats and in the test with KM mice was “significantly shorter” throughout. The “effective dose compared with remimazolam” value in the test on SD rats and with KM mice was “significantly lower” each time.

As for `COC(=O)COC(=O)CC[C@@H]1N=C(c2ccccn2)c2cc(Br)c(Br)cc2-n2c(C)cnc21` [Example 20], the ED50 turned out to be 4.7 mg/kg with SD rats (setting [1]) and 31.4 mg/kg with KM mice (setting [6]). The “2ED50 duration” value in the test with SD rats (setting [2]) was determined as 3.47 min; in the test on KM mice (setting [4]), 4.47 min. Besides, the 2ED50 recovery time stood at 2.49 min with SD rats (setting [3]) and 2.43 min with KM mice (setting [5]). In addition, the Quality of recovery entry with SD rats (SD rats, tail vein injection) is given as “++ (“++” means 1-3 min)”; in the test on KM mice (KM mice, tail vein injection), “+++ (“+++” means 3-5 min)”.

Take `Cc1cnc2n1-c1cc(Br)c(Br)cc1C(c1ccccn1)=N[C@H]2CCC(=O)OCOC(=O)OC(C)(C)C` [Example 11]: the ED50 with SD rats (setting [1]) came to 5.9 mg/kg; with KM mice (setting [6]), 22.4 mg/kg. The “2ED50 duration” value in the test with SD rats (setting [2]) was determined as 5.03 min; in the test on KM mice (setting [4]), 5.31 min. The 2ED50 recovery time in the test on SD rats (setting [3]) was determined as 2.43 min; with KM mice (setting [5]), 2.13 min. The Quality of recovery entry was “+++ (“+++” means 3-5 min)” with SD rats (SD rats, tail vein injection) and “++ (“++” means 1-3 min)” in the test with KM mice (KM mice, tail vein injection).

For `Cc1cnc2n1-c1c(Cl)c(Cl)c(Cl)c(Cl)c1C(c1ccccn1)=N[C@H]2CCC(=O)OCOC(=O)OC(C(C)C)C(C)C` [Example 31], the values for the ED50 in the test on SD rats (setting [1]) and with KM mice (setting [6]) were 2.3 mg/kg and 17.3 mg/kg, respectively. The “2ED50 duration” value amounted to 1.23 min with SD rats (setting [2]) and 2.13 min with KM mice (setting [4]). Also, the 2ED50 recovery time in the test with SD rats (setting [3]) is 1.14 min; in the test with KM mice (setting [5]), 1.04 min. In addition, the Quality of recovery result in the test with SD rats (SD rats, tail vein injection) is listed as “+ (“+” means <1 min)”; with KM mice (KM mice, tail vein injection) it was “++ (“++” means 1-3 min)”. Besides, the “duration and recovery time compared with remimazolam” value in the test on SD rats and in the test with KM mice was “significantly shorter” throughout. Further, the “effective dose compared with remimazolam” value in the test with SD rats and in the test with KM mice was “significantly lower” each time.

`COC(=O)OCOC(=O)CC[C@@H]1N=C(c2ccccn2)c2cc(Cl)c(F)cc2-n2c(C)cnc21` [Example 70, ((Methoxycarbonyl)oxy)methyl 3-((4S)-8-chloro-9-fluoro-1-methyl-6-(pyridine-2-yl)-4H-benzo[f]imidazo [1,2-a][1,4]diaza-4-ylpropionate borate]: the 50% effective dose (ED50) in the test with SD rats was found to be 4.6 mg/kg; in the test on KM mice, 26.7 mg/kg. Moreover, the “2ED50 duration” value with SD rats (rat, in vivo) is listed as 3.56 min; in the test on KM mice (mouse, in vivo), 3.27 min. Further, the 2ED50 recovery time was determined as 2.57 min in the test with SD rats (rat, in vivo) and 2.54 min in the test on KM mice (mouse, in vivo). Besides, the Quality of recovery result was “+++ (key: “+” means <1 mm; “++” means 1-3 min; “+++” means 3-5 min; “++++” means 5-10 min; “+++++” means >10 mm)” with SD rats (rat, in vivo) and “+++ (key: “+” means <1 mm; “++” means 1-3 min; “+++” means 3-5 min; “++++” means 5-10 min; “+++++” means >10 mm)” in the test with KM mice (mouse, in vivo).

For `CCOC(=O)OCOC(=O)CC[C@@H]1N=C(c2ccccn2)c2cc(Br)ccc2-n2c(C)cnc21` [Example 35], the ED50 in the test with SD rats (setting [1]) amounted to 5.2 mg/kg; in the test with KM mice (setting [6]) it was 25.2 mg/kg. In addition, the “2ED50 duration” value is 3.20 min in the test with SD rats (setting [2]) and 5.25 min in the test with KM mice (setting [4]). For the same compound, the 2ED50 recovery time is given as 2.52 min in the test with SD rats (setting [3]) and 2.02 min with KM mice (setting [5]). Moreover, the Quality of recovery result with SD rats (SD rats, tail vein injection) is recorded as “++ (“++” means 1-3 min)”; with KM mice (KM mice, tail vein injection) it was “+++ (“+++” means 3-5 min)”.

`CCOC(=O)COC(=O)CC[C@@H]1N=C(c2ccccn2)c2cccc(Cl)c2-n2c(C)cnc21` [Example 37]: the ED50 in the test with SD rats (setting [1]) was 5.7 mg/kg; with KM mice (setting [6]), 25.7 mg/kg. Moreover, the “2ED50 duration” value with SD rats (setting [2]) was found to be 3.02 min; with KM mice (setting [4]), 4.42 min. The 2ED50 recovery time was 2.51 min in the test with SD rats (setting [3]) and 1.58 min in the test on KM mice (setting [5]). The Quality of recovery result was “++ (“++” means 1-3 min)” in the test on SD rats (SD rats, tail vein injection) and “++ (“++” means 1-3 min)” in the test on KM mice (KM mice, tail vein injection).

As for `COC(=O)C1(OC(=O)CC[C@@H]2N=C(c3ccccn3)c3ccc(C(F)(F)F)c(Cl)c3-n3c(C)cnc32)CC1` [Example 41], the figures for the median effective dose (ED50) in the test on SD rats (setting [1]) and in the test with KM mice (setting [6]) were 5.9 mg/kg and 28.9 mg/kg, respectively. The “2ED50 duration” value in the test with SD rats (setting [2]) is 3.43 min; in the test with KM mice (setting [4]) it was 3.53 min. The 2ED50 recovery time is given as 2.47 min in the test on SD rats (setting [3]) and 1.57 min with KM mice (setting [5]). The Quality of recovery result in the test on SD rats (SD rats, tail vein injection) is “++ (“++” means 1-3 min)”; in the test with KM mice (KM mice, tail vein injection), “++ (“++” means 1-3 min)”.

`Cc1cnc2n1-c1ccc(Br)cc1C(c1ccccn1)=N[C@H]2CCC(=O)OCOC(=O)OC(C)(C)C` [Example 49]: the 50% effective dose (ED50) in the test with SD rats (setting [1]) was 5 mg/kg; in the test on KM mice (setting [6]), 20 mg/kg. Moreover, the “2ED50 duration” value was found to be 1.24 min in the test on SD rats (setting [2]) and 2.65 min in the test with KM mice (setting [4]). Also, the figures for the 2ED50 recovery time in the test on SD rats (setting [3]) and in the test on KM mice (setting [5]) were 2.01 min and 1.22 min, respectively. In addition, the Quality of recovery result with SD rats (SD rats, tail vein injection) is “+ (“+” means <1 min)”. In addition, the “duration and recovery time compared with remimazolam” value with SD rats and in the test on KM mice was “significantly shorter” each time. In addition, the “effective dose compared with remimazolam” value in the test on SD rats and in the test with KM mice was “significantly lower” throughout.

As for `CCOC(CCC(C)(C)OC(=O)CC[C@@H]1N=C(c2ccccn2)c2cc(Br)cc(Cl)c2-n2c(C)cnc21)C(=O)OC` (stereo partly drawn) [Example 65, Methyl 5-((3-((4S)-8-bromo-10-chloro-1-methyl-6-(pyridine-2-yl)-4H-benzo [f]imidazo[1,2-a][1,4]diazapin-4-yl)propionyl)oxy)-2-ethoxy-5-methylcaproate], the ED50 was found to be 6.3 mg/kg in the test on SD rats (setting [1]) and 31.2 mg/kg in the test on KM mice (setting [6]). The “2ED50 duration” value in the test on SD rats (setting [2]) was found to be 3.25 min; with KM mice (setting [4]), 3.4 min. Also, the 2ED50 recovery time was found to be 2.29 min in the test on SD rats (setting [3]) and 2.04 min in the test on KM mice (setting [5]). Moreover, the Quality of recovery result in the test with SD rats (SD rats, tail vein injection) is reported as “++++ (“++++” means 5-10 min)”; in the test on KM mice (KM mice, tail vein injection), “++ (“++” means 1-3 min)”.

Turning to `COc1cc(C)cc2c1-n1c(C)cnc1[C@H](CCC(=O)OC1(C(=O)OC(C)C)CC1)N=C2c1ccccn1` [Example 80, Isopropyl 1-((3-((4S)-10-methoxy-1,8-dimethyl-6-(pyridine-2-yl)-4H-benzo[f]imidazo[1,2-a][1,4]diaza-4-yl)propionyl)oxy) cyclopropane-1-carboxylate methyl sulfate], the figures for the median effective dose (ED50) in the test with SD rats (setting [1]) and in the test on KM mice (setting [6]) were 6.7 mg/kg and 30.9 mg/kg, respectively. Also, the “2ED50 duration” value in the test on SD rats (setting [2]) is recorded as 2.36 min; in the test on KM mice (setting [4]), 3.56 min. The 2ED50 recovery time is on record as 2.18 min in the test with SD rats (setting [3]) and 2.01 min in the test on KM mice (setting [5]). The Quality of recovery result with SD rats (SD rats, tail vein injection) is on record as “++ (“++” means 1-3 min)”; in the test on KM mice (KM mice, tail vein injection), “+++ (“+++” means 3-5 min)”.

Broadly, the ED50 is the midpoint of the dose-response relation.
